Data from patent US20250197374A1, “WEE1 DEGRADING COMPOUNDS AND USES THEREOF” (BRISTOL-MYERS SQUIBB COMPANY, priority 2023, published 2025).
Where two headings read alike, the source gives them in different places.

Legend:
Format in all cases: cell-based
[1] = biological target: T1, WEE1 (Homo sapiens, UniProt P30291+Q96SW2); assay: WEE1-ePL degradation assay (293T-LentiX, InCELL Hunter luminescence, 4 hr); details: for DC50: LentiX-HEK293T cells expressing WEE1-ePL, 4 hr incubation, read-out: 293T-LentiX WEE1-ePL Degradation 4 hr EC50; for 293T-LentiX WEE1-ePL Degradation 4 hr YMin (%): lower limit of fit, % of DMSO control signal remaining
T1 construct: C-terminal ePL-tagged (DiscoverX, Fremont, CA) full-length WEE1 expression construct; expressed in transfected cells; host or cells: LentiX-HEK293T (Invitrogen), lentivirally transduced; the cells also over-express GSPT1-GN
How it was run: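 EC50 comes from a four-parameter logistic fit of ePL luminescence (InCELL Hunter), with DMSO control defining Ymax. Compounds ran as 10-point 3-fold dilutions from 1 or 10 µM for 4 h at 37 °C. Cells were HEK293T-LentiX with ePL-tagged full-length WEE1 and over-expressed Cereblon-resistant GSPT1-GN.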

[2] = tested on: MKN45 cells; assay: MKN45 cell proliferation assay (Cell-Titer-Glo, 120 hr); details: for EC50: read-out: MKN45 Cell Prolif. 120 hr EC50; for MKN45 Cell Prolif. 120 hr YMin (%): minimal percent of DMSO control observed
How it was run: (§1)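 Growth inhibition was read as CellTiter-Glo luminescence after 120 h at 37 °C in RPMI/10% FBS, with 400 MKN45 or 800 MDA-MB-231 cells seeded per well. Compounds were tested in 10-point half-log series starting at 1 or 10 uM (0.1% DMSO), in triplicate for MKN45 and duplicate for MDA-MB-231. EC50 values are four-parameter fits to %DMSO control, and Ymin-obs is the minimal observed %DMSO.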

[3] = tested on: MDA-MB-231 cells; assay: MDA-MB-231 cell proliferation assay (Cell-Titer-Glo, 120 hr); details: for EC50: read-out: MDA-MB 231 Cell Prolif. 120 hr EC50; for MDA-MB 231 Cell Prolif. 120 hr YMin (%): minimal percent of DMSO control observed
How it was run: as §1

[4] = Homo sapiens, MDA-MB-231, 120 h

T1 sequence (P30291 whole entry): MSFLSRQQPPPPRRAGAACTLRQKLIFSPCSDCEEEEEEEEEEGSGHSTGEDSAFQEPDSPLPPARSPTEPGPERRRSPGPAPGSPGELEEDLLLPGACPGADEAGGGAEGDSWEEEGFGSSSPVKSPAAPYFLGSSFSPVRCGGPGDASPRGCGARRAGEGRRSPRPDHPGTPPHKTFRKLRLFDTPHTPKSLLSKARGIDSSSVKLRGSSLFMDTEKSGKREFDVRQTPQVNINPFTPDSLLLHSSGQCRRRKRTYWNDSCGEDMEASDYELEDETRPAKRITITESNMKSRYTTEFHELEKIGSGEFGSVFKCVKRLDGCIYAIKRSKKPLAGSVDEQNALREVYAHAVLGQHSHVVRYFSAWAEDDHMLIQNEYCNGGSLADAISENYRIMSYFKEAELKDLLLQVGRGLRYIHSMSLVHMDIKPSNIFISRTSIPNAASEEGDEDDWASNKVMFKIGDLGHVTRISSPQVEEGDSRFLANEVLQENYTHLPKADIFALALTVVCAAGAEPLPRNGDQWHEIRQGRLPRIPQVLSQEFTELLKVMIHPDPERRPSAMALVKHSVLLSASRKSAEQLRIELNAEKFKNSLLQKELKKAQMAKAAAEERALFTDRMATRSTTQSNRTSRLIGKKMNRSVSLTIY
T1 sequence (Q96SW2 whole entry): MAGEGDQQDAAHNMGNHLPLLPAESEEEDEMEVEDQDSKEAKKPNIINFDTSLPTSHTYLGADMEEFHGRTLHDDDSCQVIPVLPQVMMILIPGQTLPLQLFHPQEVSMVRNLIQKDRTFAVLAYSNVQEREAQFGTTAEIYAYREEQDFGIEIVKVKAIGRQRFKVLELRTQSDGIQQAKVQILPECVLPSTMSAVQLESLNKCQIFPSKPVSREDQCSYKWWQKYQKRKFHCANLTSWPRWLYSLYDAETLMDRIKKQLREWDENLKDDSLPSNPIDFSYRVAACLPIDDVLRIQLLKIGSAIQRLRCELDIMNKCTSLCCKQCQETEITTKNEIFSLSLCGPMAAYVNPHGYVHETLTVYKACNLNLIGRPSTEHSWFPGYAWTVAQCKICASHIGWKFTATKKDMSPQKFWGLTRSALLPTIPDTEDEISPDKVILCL
T1 sequence (Q16531 whole entry partner): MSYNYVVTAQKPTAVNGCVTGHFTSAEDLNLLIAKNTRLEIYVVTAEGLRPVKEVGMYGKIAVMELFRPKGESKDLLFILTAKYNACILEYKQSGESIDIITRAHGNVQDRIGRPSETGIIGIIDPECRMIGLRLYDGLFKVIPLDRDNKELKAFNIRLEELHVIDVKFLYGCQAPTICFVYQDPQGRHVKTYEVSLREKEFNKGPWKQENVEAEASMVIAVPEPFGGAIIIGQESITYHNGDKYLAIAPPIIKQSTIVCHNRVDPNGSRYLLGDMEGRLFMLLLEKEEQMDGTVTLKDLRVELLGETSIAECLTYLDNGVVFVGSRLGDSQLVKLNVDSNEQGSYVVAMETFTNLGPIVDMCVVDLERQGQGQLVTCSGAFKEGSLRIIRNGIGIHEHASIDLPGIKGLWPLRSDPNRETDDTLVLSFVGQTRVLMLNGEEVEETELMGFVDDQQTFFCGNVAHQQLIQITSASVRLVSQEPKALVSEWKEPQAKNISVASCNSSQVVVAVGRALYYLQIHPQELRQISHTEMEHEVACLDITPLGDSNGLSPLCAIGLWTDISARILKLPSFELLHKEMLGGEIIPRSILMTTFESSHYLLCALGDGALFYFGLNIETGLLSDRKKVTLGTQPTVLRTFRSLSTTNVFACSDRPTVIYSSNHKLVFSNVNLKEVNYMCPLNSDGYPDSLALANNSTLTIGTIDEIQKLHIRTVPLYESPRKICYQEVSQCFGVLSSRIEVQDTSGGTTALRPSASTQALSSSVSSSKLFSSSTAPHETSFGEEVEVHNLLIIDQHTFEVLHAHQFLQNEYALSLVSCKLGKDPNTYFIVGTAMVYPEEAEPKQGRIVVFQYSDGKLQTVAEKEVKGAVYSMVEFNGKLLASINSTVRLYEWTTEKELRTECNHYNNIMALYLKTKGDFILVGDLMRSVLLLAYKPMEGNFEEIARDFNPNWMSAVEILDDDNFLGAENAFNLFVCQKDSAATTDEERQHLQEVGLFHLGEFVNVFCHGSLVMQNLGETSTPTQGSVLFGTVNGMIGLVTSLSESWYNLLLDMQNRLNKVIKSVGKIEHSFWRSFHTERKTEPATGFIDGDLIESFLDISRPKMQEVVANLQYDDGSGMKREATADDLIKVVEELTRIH

Compound	DC50 [1] [nM]	293T-LentiX WEE1-ePL Degradation 4 hr YMin (%) [1] [%]	EC50 ([2]; Homo sapiens, MKN-45, 120 h) [nM]	MKN45 Cell Prolif. 120 hr YMin (%) [2] [%]	EC50 [3, 4] [nM]	MDA-MB 231 Cell Prolif. 120 hr YMin (%) [3] [%]	EC50 [2] [nM]	EC50 [3] [nM]
COC[C@@H]1CN(Cc2ccc3nc(N4C[C@H]5CCO[C@H]5C4)ncc3c2)C[C@H]1Oc1ccc2c(c1)CN([C@H]1CCC(=O)NC1=O)C2=O (single isomer, unassigned) [Example 8, (S)-3-(5-(((3S,4S)-1-((2-((3aR*,6aR*)-hexahydro-5H-furo[2,3-c]pyrrol-5-yl)quinazolin-6-yl)methyl)-4-(methoxymethyl)pyrrolidin-3-yl)oxy)-1-oxoisoindolin-2-yl)piperidine-2,6-dione]	4	27.5	6	10.0	105	31.9		
O=C1CC[C@H](N2Cc3cc(O[C@H]4CCN(Cc5cc(F)c6nc(N7C[C@H]8CCO[C@H]8C7)ncc6c5)C4)ccc3C2=O)C(=O)N1 (single isomer, unassigned) [Example 9, (S)-3-(5-(((S)-1-((8-fluoro-2-((3aR*,6aR*)-hexahydro-5H-furo[2,3-c]pyrrol-5-yl)quinazolin-6-yl)methyl)pyrrolidin-3-yl)oxy)-1-oxoisoindolin-2-yl)piperidine-2,6-dione]	6	32.4	11	11.7	366	45.1		
COC[C@@H]1CN(Cc2cc(F)c3nc(N4C[C@H]5CCO[C@H]5C4)ncc3c2)C[C@H]1Oc1ccc2c(c1)CN([C@H]1CCC(=O)NC1=O)C2=O (single isomer, unassigned) [Example 10, (S)-3-(5-(((3S,4S)-1-((8-fluoro-2-((3aR*,6aR*)-hexahydro-5H-furo[2,3-c]pyrrol-5-yl)quinazolin-6-yl)methyl)-4-(methoxymethyl)pyrrolidin-3-yl)oxy)-1-oxoisoindolin-2-yl)piperidine-2,6-dione]	2	27.8	2	10.6	70	24.6		
O=C1CCC(N2C(=O)c3ccc(O[C@H]4CCN(Cc5cc(F)c6nc(C7CCOCC7)ccc6c5)C4)cc3C2=O)C(=O)N1 (single isomer, unassigned) [Example 11, 2-((S*)-2,6-dioxopiperidin-3-yl)-5-(((S)-1-((8-fluoro-2-(tetrahydro-2H-pyran-4-yl)quinolin-6-yl)methyl)pyrrolidin-3-yl)oxy)isoindoline-1,3-dione]	4	30.4	33	12.1	525	53.2		
COC[C@@H]1CN(Cc2cc(F)c3nc(N4C[C@@H]5CCO[C@@H]5C4)ncc3c2)C[C@H]1Oc1ccc2c(c1)CN([C@H]1CCC(=O)NC1=O)C2=O (single isomer, unassigned) [Example 13, (S)-3-(5-(((3S,4S)-1-((8-fluoro-2-((3aS*,6aS*)-hexahydro-5H-furo[2,3-c]pyrrol-5-yl)quinazolin-6-yl)methyl)-4-(methoxymethyl)pyrrolidin-3-yl)oxy)-1-oxoisoindolin-2-yl)piperidine-2,6-dione]	1	22.1	3	11.9	61	37.3		
O=C1CC[C@H](N2Cc3cc(O[C@@H]4CN(Cc5cc(F)c6nc(N7C[C@H]8CCO[C@H]8C7)ccc6c5)CC4(F)F)ccc3C2=O)C(=O)N1 (single isomer, unassigned) [Example 14, (S)-3-(5-(((R)-4,4-difluoro-1-((8-fluoro-2-((3aR*,6aR*)-hexahydro-5H-furo[2,3-c]pyrrol-5-yl)quinolin-6-yl)methyl)pyrrolidin-3-yl)oxy)-1-oxoisoindolin-2-yl)piperidine-2,6-dione]	3	31.8	6	10.2	63	34.4		
O=C1CC[C@H](N2Cc3cc(O[C@@H]4CN(Cc5cc(F)c6nc(N7C[C@@H]8CCO[C@@H]8C7)ccc6c5)CC4(F)F)ccc3C2=O)C(=O)N1 (single isomer, unassigned) [Example 15, (S)-3-(5-(((R)-4,4-difluoro-1-((8-fluoro-2-((3aS*,6aS*)-hexahydro-5H-furo[2,3-c]pyrrol-5-yl)quinolin-6-yl)methyl)pyrrolidin-3-yl)oxy)-1-oxoisoindolin-2-yl)piperidine-2,6-dione]	2	28.4	6	8.8	73	31.4		
COC[C@@H]1CN(Cc2ccc3nc(N4C[C@@H]5CCO[C@@H]5C4)ccc3c2)C[C@H]1Oc1ccc2c(c1)CN([C@H]1CCC(=O)NC1=O)C2=O (single isomer, unassigned) [Example 16, (S)-3-(5-(((3S,4S)-1-((2-((3aS*,6aS*)-hexahydro-5H-furo[2,3-c]pyrrol-5-yl)quinolin-6-yl)methyl)-4-(methoxymethyl)pyrrolidin-3-yl)oxy)-1-oxoisoindolin-2-yl)piperidine-2,6-dione]		29.6	2	10.8	48	43.7		
O=C1CC[C@H](N2Cc3cc(O[C@@H]4CN(Cc5ccc6nc(N7C[C@@H]8CCO[C@@H]8C7)ccc6c5)CC4(F)F)ccc3C2=O)C(=O)N1 (single isomer, unassigned) [Example 17, (S)-3-(5-(((R)-4,4-difluoro-1-((2-((3aS*,6aS*)-hexahydro-5H-furo[2,3-c]pyrrol-5-yl)quinolin-6-yl)methyl)pyrrolidin-3-yl)oxy)-1-oxoisoindolin-2-yl)piperidine-2,6-dione]	2	25.6	5	13.2	45	47.2		
COC[C@@H]1CN(Cc2ccc3nc(N4C[C@@H]5CCO[C@@H]5C4)ncc3c2)C[C@H]1Oc1ccc2c(c1)CN([C@H]1CCC(=O)NC1=O)C2=O (single isomer, unassigned) [Example 18, (S)-3-(5-(((3S,4S)-1-((2-((3aS*,6aS*)-hexahydro-5H-furo[2,3-c]pyrrol-5-yl)quinazolin-6-yl)methyl)-4-(methoxymethyl)pyrrolidin-3-yl)oxy)-1-oxoisoindolin-2-yl)piperidine-2,6-dione]	3	29.8	7	10.1	73	28.4		
O=C1CC[C@H](N2Cc3cc(O[C@H]4CCN(Cc5cc(F)c6nc(N7C[C@@H]8CCO[C@@H]8C7)ncc6c5)C4)ccc3C2=O)C(=O)N1 (single isomer, unassigned) [Example 19, (S)-3-(5-(((S)-1-((8-fluoro-2-((3aS*,6aS*)-hexahydro-5H-furo[2,3-c]pyrrol-5-yl)quinazolin-6-yl)methyl)pyrrolidin-3-yl)oxy)-1-oxoisoindolin-2-yl)piperidine-2,6-dione]	6	31.4	12	10.1	104	58.4		
O=C1CCC(N2C(=O)c3ccc(O[C@H]4CCN(Cc5cc(F)c6nc(C7CCOCC7)ccc6c5)C4)cc3C2=O)C(=O)N1 (single isomer, unassigned) [Example 26, 2-((R*)-2,6-dioxopiperidin-3-yl)-5-(((S)-1-((8-fluoro-2-(tetrahydro-2H-pyran-4-yl)quinolin-6-yl)methyl)pyrrolidin-3-yl)oxy)isoindoline-1,3-dione]	8	32.8		12.3		53.8	39	999
O=C1CC[C@H](N2Cc3cc(O[C@H]4CCN(Cc5cc(F)c6nc(N7C[C@@H]8CCO[C@@H]8C7)ccc6c5)C4)ccc3C2=O)C(=O)N1 (single isomer, unassigned) [Example 81, (S)-3-(5-(((S)-1-((8-fluoro-2-((3aS*,6aS*)-hexahydro-5H-furo[2,3-c]pyrrol-5-yl)quinolin-6-yl)methyl)pyrrolidin-3-yl)oxy)-1-oxoisoindolin-2-yl)piperidine-2,6-dione]	1	32.9	5	15.5	64	66.9		
